Experimental data from patent US11643400B2, “MCL-1 inhibitors” (Gilead Sciences, Inc., priority 2018, dated 2023).

system: SKBR3 Cells; assay: SKBR3 Cell Viability Assay; format: cell-based; details: 72 hours, CellTiter Glo luminescence, read-out: MCL-1 CV SKBR3 EC50
Procedure: SKBR3 Cell Viability Assay Materials
SKBR3 Cells (ATCC HTB-30) were obtained from ATCC (Manassas, Va.) and cultured in McCoy 5A's medium (ATCC 30-2007)+10% fetal bovine serum (SH30071.03, HyClone, Pittsburgh, Pa.) plus 1× Penicillin-Streptomycin L-glutamine (Corning 30-009-C1, Corning, N.Y.)).
The cell viability assay was conducted in a 384-well tissue culture plate (Grenier 781086, Monroe, N.C.) in a total volume of 70 μL. Test compounds were prepared in 1,000×, serially diluted, and pre-spotted into 384-well tissue culture plate by Echo 555 Liquid Handler (Labcyte Inc., San Jose, Calif.). Seventy pi of 6,000 SKBR3 cells were dispensed into each well of the plate and incubated at 37° C. with 5% CO2 for 72 hours. At the end of incubation, 2× CellTiter Glo (CTG) reagents (1 part buffer with 2 parts substrate) (Promega, Madison, Wis.) were prepared, and the plate and the reagent were equilibrated to room temperature for 30 minutes. CTG reagent was added to each plate by Biomek FX at 20 μL/well with 5 times pipetting and mixing to induce cell lysis. Luminescence was read by Envision multimode reader (PerkinElmer). […] Percent inhibition was calculated as followed: % Inhibition=100%*(Well−Neg)/(Pos−Neg) Neg, negative control, DMSO Pos, positive control, 10 μM Puromycin

SMILES	EC50
COC1CCN(C(=O)N[S@@]2(=O)=NC(=O)c3ccc4c(c3)N(C[C@@H]3CC[C@H]3[C@@H](OC)/C=C/C[C@H](C)C2)C[C@@]2(CCCc3cc(Cl)ccc32)CO4)CC1 [Example 320]	36.6 nM
CO[C@H]1/C=C/CCC[S@@](=O)(NC(=O)CCCC(F)(F)F)=NC(=O)c2ccc3c(c2)N(C[C@@H]2CC[C@H]21)C[C@@]1(CCCc2cc(Cl)ccc21)CO3 [Example 95]	1100 nM
CCC1CN(C(=O)N[S@@]2(=O)=NC(=O)c3ccc4c(c3)N(C[C@@H]3CC[C@H]3[C@@H](OC)/C=C/C[C@H](C)C2)C[C@@]2(CCCc3cc(Cl)ccc32)CO4)C1 [Example 242]	84 nM
CO[C@H]1/C=C/CCC[S@@](=O)(NC(=O)NC2(C(F)(F)F)CC2)=NC(=O)c2ccc3c(c2)N(C[C@@H]2CC[C@H]21)C[C@@]1(CCCc2cc(Cl)ccc21)CO3 [Example 32]	1480 nM
COc1nn(C)cc1C(=O)N[S@@]1(=O)=NC(=O)c2ccc3c(c2)N(C[C@@H]2CC[C@H]2[C@@H](OC(=O)CC(C)C)/C=C/C[C@H](C)C1)C[C@@]1(CCCc2cc(Cl)ccc21)CO3 [Example 381]	534 nM
COc1nn(C2CC2)cc1C(=O)N[S@@]1(=O)=NC(=O)c2ccc3c(c2)N(C[C@@H]2CC[C@H]2[C@@H](OC)/C=C/C[C@H](C)C1)C[C@@]1(CCCc2cc(Cl)ccc21)CO3 [Example 262]	85.8 nM
CO[C@H]1/C=C/CCC[S@@](=O)(NC(=O)COC2CCOCC2)=NC(=O)c2ccc3c(c2)N(C[C@@H]2CC[C@H]21)C[C@@]1(CCCc2cc(Cl)ccc21)CO3 [Example 105]	351 nM
CO[C@H]1/C=C/CCC[S@@](=O)(NC(=O)CCC(F)(F)F)=NC(=O)c2ccc3c(c2)N(C[C@@H]2CC[C@H]21)C[C@@]1(CCCc2cc(Cl)ccc21)CO3 [Example 94]	902 nM
CO[C@H]1/C=C/C[C@H](C)C[S@@](=O)(NC(=O)N2CC3(CCCO3)C2)=NC(=O)c2ccc3c(c2)N(C[C@@H]2CC[C@H]21)C[C@@]1(CCCc2cc(Cl)ccc21)CO3 [Example 231]	40 nM
CO[C@H]1/C=C/C[C@H](C)C[S@@](=O)(NC(=O)C2CC(OC(F)F)C2)=NC(=O)c2ccc3c(c2)N(C[C@@H]2CC[C@H]21)C[C@@]1(CCCc2cc(Cl)ccc21)CO3 (stereo partly shown) [Example 431]	233 nM
CO[C@H]1/C=C/CCC[S@@](=O)(NC(=O)CCc2c(C)cnn2C)=NC(=O)c2ccc3c(c2)N(C[C@@H]2CC[C@H]21)C[C@@]1(CCCc2cc(Cl)ccc21)CO3 [Example 103]	10000 nM
CO[C@H]1/C=C/CCC[S@@](=O)(NC(=O)CCc2ncsc2C)=NC(=O)c2ccc3c(c2)N(C[C@@H]2CC[C@H]21)C[C@@]1(CCCc2cc(Cl)ccc21)CO3 [Example 101]	2590 nM
CO[C@H]1/C=C/CCC[S@@](=O)(NC(=O)CCc2csc(C)n2)=NC(=O)c2ccc3c(c2)N(C[C@@H]2CC[C@H]21)C[C@@]1(CCCc2cc(Cl)ccc21)CO3 [Example 99]	2090 nM
CO[C@H]1/C=C/CCC[S@@](=O)(NC(=O)CCc2nnc(C)s2)=NC(=O)c2ccc3c(c2)N(C[C@@H]2CC[C@H]21)C[C@@]1(CCCc2cc(Cl)ccc21)CO3 [Example 102]	891 nM
CO[C@H]1/C=C/CCC[S@@](=O)(NC(=O)COc2ccccc2)=NC(=O)c2ccc3c(c2)N(C[C@@H]2CC[C@H]21)C[C@@]1(CCCc2cc(Cl)ccc21)CO3 [Example 96]	604 nM
CO[C@H]1/C=C/C[C@H](C)C[S@@](=O)(NC(=O)[C@H]2Cc3ccccc3CO2)=NC(=O)c2ccc3c(c2)N(C[C@@H]2CC[C@H]21)C[C@@]1(CCCc2cc(Cl)ccc21)CO3 (single isomer, unassigned) [Example 143]	219 nM
CCN(CC)C(=O)OC1CN(C(=O)N[S@@]2(=O)=NC(=O)c3ccc4c(c3)N(C[C@@H]3CC[C@H]3[C@@H](OC)/C=C/C[C@H](C)C2)C[C@@]2(CCCc3cc(Cl)ccc32)CO4)C1 [Example 226]	71.3 nM
CO[C@H]1/C=C/C[C@H](C)C[S@@](=O)(NC(=O)N2CC(C(C)(C)O)C2)=NC(=O)c2ccc3c(c2)N(C[C@@H]2CC[C@H]21)C[C@@]1(CCCc2cc(Cl)ccc21)CO3 [Example 237]	121 nM
CO[C@H]1/C=C/C[C@H](C)C[S@@](=O)(NC(=O)N2CC(C#N)C2)=NC(=O)c2ccc3c(c2)N(C[C@@H]2CC[C@H]21)C[C@@]1(CCCc2cc(Cl)ccc21)CO3 [Example 233]	47.2 nM
COc1nn(C)cc1C(=O)N[S@@]1(=O)=NC(=O)c2ccc3c(c2)N(C[C@@H]2CC[C@H]2[C@@H](OC(=O)OC(C)C)/C=C/C[C@H](C)C1)C[C@@]1(CCCc2cc(Cl)ccc21)CO3 [Example 384]	154 nM
CO[C@H]1/C=C/CCC[S@@](=O)(NC(=O)c2cc3ccccc3n2C)=NC(=O)c2ccc3c(c2)N(C[C@@H]2CC[C@H]21)C[C@@]1(CCCc2cc(Cl)ccc21)CO3 [Example 98]	2190 nM
CO[C@H]1/C=C/CCC[S@@](=O)(NC(=O)CCc2ccccc2)=NC(=O)c2ccc3c(c2)N(C[C@@H]2CC[C@H]21)C[C@@]1(CCCc2cc(Cl)ccc21)CO3 [Example 97]	788 nM
CO[C@H]1/C=C/CCC[S@@](=O)(NC(=O)COc2ccnn2C)=NC(=O)c2ccc3c(c2)N(C[C@@H]2CC[C@H]21)C[C@@]1(CCCc2cc(Cl)ccc21)CO3 [Example 100]	2260 nM
CCOC1CN(C(=O)N[S@@]2(=O)=NC(=O)c3ccc4c(c3)N(C[C@@H]3CC[C@H]3[C@@H](OC)/C=C/C[C@H](C)C2)C[C@@]2(CCCc3cc(Cl)ccc32)CO4)C1 [Example 235]	39.8 nM
CO[C@H]1/C=C/C[C@H](C)C[S@@](=O)(NC(=O)N2CC3(CCO3)C2)=NC(=O)c2ccc3c(c2)N(C[C@@H]2CC[C@H]21)C[C@@]1(CCCc2cc(Cl)ccc21)CO3 [Example 230]	47.1 nM

same assay, conditions: Homo sapiens, SK-BR-3, 72 h, CellTiter Glo luminescence, read-out: MCL-1 CV SKBR3 EC50

SMILES	EC50
CO[C@H]1/C=C/CCC[S@@](=O)(NC(=O)CCc2ccnn2C)=NC(=O)c2ccc3c(c2)N(C[C@@H]2CC[C@H]21)C[C@@]1(CCCc2cc(Cl)ccc21)CO3 [Example 22]	259 nM
CCc1nn(C)cc1C(=O)N[S@@]1(=O)=NC(=O)c2ccc3c(c2)N(C[C@@H]2CC[C@H]2[C@@H](OC)/C=C/C[C@H](C)[C@H]1C)C[C@@]1(CCCc2cc(Cl)ccc21)CO3 [Example 188]	78.3 nM
CO[C@H]1/C=C/CCC[S@@](=O)(NC(=O)CCc2cocn2)=NC(=O)c2ccc3c(c2)N(C[C@@H]2CC[C@H]21)C[C@@]1(CCCc2cc(Cl)ccc21)CO3 [Example 57]	596 nM
CO[C@H]1/C=C/C[C@H](C)C[S@@](=O)(NC(=O)NC2CC2)=NC(=O)c2ccc3c(c2)N(C[C@@H]2CC[C@H]21)C[C@@]1(CCCc2cc(Cl)ccc21)CO3 [Example 170]	210 nM
COc1nn(C)cc1C(=O)N[S@@]1(=O)=NC(=O)c2ccc3c(c2)N(C[C@@H]2CC[C@H]2[C@@H](OC)/C=C/[C@H](OC(=O)c2cn(C)nc2OC)CC1)C[C@@]1(CCCc2cc(Cl)ccc21)CO3 [Example 391]	4560 nM

molecular target: Recombinant human MCL-1 protein (Homo sapiens (Human), UniProt Q07820); assay: MCL-1/Bim Binding AlphaLISA Assay; details: 6×His-Mcl-1 (171-327) and biotinylated-Bim peptide (51-76)
Sequence (Q07820 171-327): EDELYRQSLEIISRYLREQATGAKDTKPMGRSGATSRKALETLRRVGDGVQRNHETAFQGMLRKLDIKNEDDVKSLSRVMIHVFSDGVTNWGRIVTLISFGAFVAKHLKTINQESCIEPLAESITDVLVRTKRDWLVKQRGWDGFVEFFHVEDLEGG
Procedure: MCL-1/Bim Binding AlphaLISA Assay.
Inhibition of the MCL-1 and Bim interaction was measured in the following AlphaLISA assay.
Recombinant human MCL-1 protein (C-terminal 6×His Tagged Mcl-1 containing residues 171-327) was generated at Gilead Sciences, Inc. (Foster City, Calif.). A biotinylated peptide derived from human Bim (residues 51-76) was purchased from CPC Scientific (Sunnyvale, Calif.). (CPC 834113). AlphaLISA anti-6His-acceptor beads (AL128R), AlphaScreen Streptavidin donor beads (6760002B), and Proxiplate-384 Plus (6008289) were purchased from PerkinElmer.
The AlphaLISA assay was performed in a 384-well Proxiplate in a total volume of 40 μL. The reaction mixture contained 0.0625 nM 6×His-Mcl-1 (171-327), 0.0625 nM biotinylated-Bim peptide, 10 μg/mL AlphaLISA anti-6×His-AlphaLISA acceptor beads, 40 μg/mL AlphaScreen streptavidin donor beads, and serially diluted test compounds in the binding buffer (20 mM Hepes, pH 7.5 (Teknova H1035); 150 mM NaCl (Promega V4221); 0.002% Brij 35 (Thermo Scientific 20150); 1 mM Dithiothreitol (DTT) Solution (Affymetrix 70726); 0.01% BSA (BioLabs B9000S)). 1,000× test compounds were pre-spotted onto 384-well Proxiplate (Labcyte Echo) by Echo 555 Liquid Handler (Labcyte Inc., San Jose, Calif.) followed by incubation of 5 μl Mcl-1 (171-327) for 1 hour. Then 5 μL Bim (51-76) was added and incubated for 2 hours. Five μL AlphaLISA anti-6His-AlphaLISA acceptor beads were then added for 1 hour followed by addition of 5 μL AlphaScreen streptavidin donor beads for 1 hour. The reaction plates were then read on an Envision multimode reader (PerkinElmer) using AlphaScreen settings. […] Percent inhibition was calculated as shown below: % Inhibition=100%*(Well−Neg)/(Pos−Neg) Neg: negative control, DMSO Pos: positive control, no Mcl-1 protein, no biotinylated-Bim peptide

SMILES	IC50
CCc1nn(C)cc1C(=O)N[S@@]1(=O)=NC(=O)c2ccc3c(c2)N(C[C@@H]2CC[C@H]2[C@@H](OC)/C=C/C[C@H](C)[C@H]1C)C[C@@]1(CCCc2cc(Cl)ccc21)CO3 [Example 188]	0.069 nM
CO[C@H]1/C=C/CCC[S@@](=O)(NC(=O)CCc2cocn2)=NC(=O)c2ccc3c(c2)N(C[C@@H]2CC[C@H]21)C[C@@]1(CCCc2cc(Cl)ccc21)CO3 [Example 57]	0.2 nM
CO[C@H]1/C=C/C[C@H](C)C[S@@](=O)(NC(=O)NC2CC2)=NC(=O)c2ccc3c(c2)N(C[C@@H]2CC[C@H]21)C[C@@]1(CCCc2cc(Cl)ccc21)CO3 [Example 170]	0.06 nM
COc1nn(C)cc1C(=O)N[S@@]1(=O)=NC(=O)c2ccc3c(c2)N(C[C@@H]2CC[C@H]2[C@@H](OC)/C=C/[C@H](OC(=O)c2cn(C)nc2OC)CC1)C[C@@]1(CCCc2cc(Cl)ccc21)CO3 [Example 391]	0.702 nM
